Converted amounts (≈) assume the structure as drawn. “And” between values parts separate entries of the source, which are not always exact repeats. Equal values may be shown once. Read-outs that look alike come from different tables or passages of the source.
Experiments:
[1] = Solubility of BETi1 in water (HPLC) and in solvents (visual observation); type: physicochemical; conditions: sample of 0.04 mg/g (0.004%) in NaCMC/saline
MMP-9 = experiment: RHE vitiligo model: MMP-9 secretion by ELISA; type: cell-based, human; conditions: for reduction in secreted MMP-9: 1% treatment, vs stimulated/untreated control or vehicle; for MMP-9 (% stimulated ctl) Mean / MMP-9 (% stimulated ctl): TNF-α/IFN-γ stimulated RHE; for MMP-9 (% stimulated ctl) Mean / MMP-9 (% stimulated ctl) / Mean conc MMP-9 / Conc MMP-9: 48 h; for MMP-9 (% stimulated ctl) / Conc MMP-9: replicates N1-N3; for Mean conc MMP-9 / Conc MMP-9: culture medium of RHE, TNF-α 12 ng/ml/IFN-γ 12 ng/ml
Method: […] Three epidermis samples per condition are fixed in 4% formaldehyde solution and embedded in paraffin for further analysis (morphology analysis, melanin and melanocytes localisation/quantification). Three other epidermis samples per condition are put in a specific lysis buffer for total RNA extraction.
At the end of the treatments, culture media is collected (from 3 epidermis per condition), aliquoted and stored at −20° C. until use in ELISA assays. The quantity of MMP-9 secreted by the epidermis at the end of the treatments is analysed using the human MMP-9 Quantikine ELISA kit (Bio-Techne; DMP900). The secretion of E-cadherin in culture media is measured using to human E-cadherin Quantikine ELISA kit (Bio-Techne; DCADE0) dedicated for the measurement of natural human E-cadherin in culture supernates, serum, plasma, urine, and saliva.
The ELISAs are performed following the instructions of the supplier. The quantities of MMP-9 and E-cadherin are determined by comparisons with standard curves performed with recombinant human MMP-9 or E-cadherin provided in the kits.
Quantification of secretion of MMP-9 and E-cadherin by ELISA from collected culture medium was conducted in accordance with Method E. The results, shown in FIG. 5A and FIG. 5B are based on Tables 23 and 24 respectively and presented in percentage of release in comparison to the stimulated control. A statistical analysis (student t-test) was performed to compare the effects of the treatments with the formulations to the vehicle (with $: 0.05>p>0.01; $$: 0.01>p>0.001; and $$$: p<0.001). The same analysis was performed to compare the effects of the vehicle and of the unstimulated control to the stimulated control (with *: 0.05>p>0.01; **: 0.01>p>0.001; and ***: p<0.001). The analysis was performed from three replicates per condition (n=3). The mean of the three values and the standard deviation are presented on the histograms in FIG. 5A and FIG. 5B. As shown in Table 21 and FIG. 5A and consistent with the results of Part A, MMP-9 secretion was increased following the stimulation with the cytokines, which validates the assay.

[2] = Solubility of BETi1 in water (HPLC) and in solvents (visual observation); type: physicochemical
Method: The resulting sample, still containing solid BETi1, was filtered and analyzed by HPLC for assay of BETi1 in solution. Solubility of BETi in water was determined to be about 0.005 mg/gram or 0.5 mg/100 mL water (1 ml=1 g) using HPLC (Table 41A).
To characterize the solubility of BETi in other solvents, about 5 mg of BETi1 was weighed into a 2 ml glass vial. 20 μL aliquots of each of the solvent listed in Table 41B was added to dissolve the drug substance at 25° C. Vortex and sonication were applied to assist dissolution. Approximate solubility was determined by visual observation and reported in […]

[3] = tested on: bleomycin induced pulmonary fibrosis; experiment: Bleomycin mice: lung histopathology (H & E, Masson's Trichrome), Hübner-modified Ashcroft score; type: in vivo, C57BL/6 male mice; conditions: for mean score, Hübner-modified Ashcroft scale of 0-8: bleomycin
Description: Seven mice from each group are randomly submitted for histopathology analysis (Hematoxylin and eosin (H & E) and Masson's Trichrome (MT)). The lungs are trimmed as needed and processed overnight in a Citadel 1000 automated processor by Shandon Scientific. Post-processing, lungs are embedded in paraffin blocks and sectioned in the following fashion: several slides are generated with lung sections in the first 1 mm of tissue, middle portions of the tissue, and finally near the latter third of the tissue in order to glean histological alterations throughout the lung. Sections are cut at […] thickness with a rotary microtome. Several slides per lung (at each depth) are stained with a H & E stain (reagents from Fisher Scientific) and MT Stain (Sigma kit HT15).
Pathological alterations are evaluated by a pathologist in blind manner (both dosage and treatment programs are unknown to the pathologist). The subacute interstitial inflammation and Agonal Hemorrhage are evaluated mainly based on the H & E staining. Fibrotic modifications are assessed morphologically and semi-quantitatively graded according to the scale defined by Ashcroft and modified by Hübner. Three sections for each lung sample are stained with MT and scored on a scale of 0-8. The final score is expressed as a mean of individual scores observed across all microscopic fields. In order to quantify the distribution of pulmonary fibrosis, the Ashcroft scores are graded in 3 general classes of increasing values: ranging from 0-3 (mild), 4 (moderate) and ≥5 (severe).
Three sections for each lung sample were stained with H & E and Masson's Trichrome and scored on a Hübner-modified Ashcroft scale of 0-8. Three pictorial representations for each of groups 1-5 are shown in FIGS. 19A-E respectively (100×) and one representation for each of groups 1-5 is shown in FIGS. 19F-J (40×). Histology provides a picture or snapshot of the absence or presence of fibrosis. […] Other groups with higher concentrations of BETi also appeared to lessen bleomycin induced fibrosis but to a lesser degree.

## Cn1cc(-c2cccc(O)c2Oc2ccccc2)c2cc[nH]c2c1=O [BETi1]
[1]
  fraction of API in undissolved form: approximately 90%
MMP-9
  reduction in secreted MMP-9: ~95%
MMP-9; listed as BETi1 1%
  reduction in secreted MMP-9: > 95%
MMP-9; listed as BETi 1%
  reduction in secreted MMP-9: about 94.7%
MMP-9; BETi1 0.001%
  MMP-9 (% stimulated ctl) Mean: 137%
  MMP-9 (% stimulated ctl): 140% and 138% and 134%
  Mean conc MMP-9: 24.1 ng/mL
  Conc MMP-9: 24.5 ng/mL and 24.1 ng/mL and 23.5 ng/mL
MMP-9; BETi1 0.01%
  MMP-9 (% stimulated ctl) Mean: 113%
  MMP-9 (% stimulated ctl): 113% and 104% and 122%
  Mean conc MMP-9: 19.8 ng/mL
  Conc MMP-9: 19.9 ng/mL and 18.2 ng/mL and 21.4 ng/mL
MMP-9; BETi1 0.1%
  MMP-9 (% stimulated ctl) Mean: 10%
  MMP-9 (% stimulated ctl): 9% (2×) and 12%
  Mean conc MMP-9: 1.7 ng/mL
  Conc MMP-9: 1.5 ng/mL and 2.0 ng/mL and 1.6 ng/mL
MMP-9; BETi1 1%
  MMP-9 (% stimulated ctl) Mean: 5%
  MMP-9 (% stimulated ctl): 5% (2×) and 6%
  Mean conc MMP-9: 0.9 ng/mL
  Conc MMP-9: 0.9 ng/mL and 1.1 ng/mL and 0.8 ng/mL
[2]; isopropanol
  solubility: slightly soluble
[2]; organic solvent or mixture, thermodynamic from solid, 1,4-Dioxane, 25° C., visual observation, read-out: Approximate solubility
  solubility: 104 mg/mL (≈ 313 mM)
[2]; organic solvent or mixture, thermodynamic from solid, Acetone, 25° C., visual observation, read-out: Approximate solubility
  solubility: 15 mg/mL (≈ 45.1 mM)
[2]; organic solvent or mixture, thermodynamic from solid, Acetonitrile, 25° C., visual observation, read-out: Approximate solubility
  solubility: < 5 mg/mL
[2]; organic solvent or mixture, thermodynamic from solid, Anisole, 25° C., visual observation, read-out: Approximate solubility
  solubility: < 5 mg/mL
[2]; organic solvent or mixture, thermodynamic from solid, Dichloromethane, 25° C., visual observation, read-out: Approximate solubility
  solubility: < 5 mg/mL
[2]; organic solvent or mixture, thermodynamic from solid, Ethanol, 25° C., visual observation, read-out: Approximate solubility
  solubility: 12 mg/mL (≈ 36.1 mM)
[2]; organic solvent or mixture, thermodynamic from solid, Ethyl acetate, 25° C., visual observation, read-out: Approximate solubility
  solubility: < 5 mg/mL
[2]; organic solvent or mixture, thermodynamic from solid, Heptane, 25° C., visual observation, read-out: Approximate solubility
  solubility: < 5 mg/mL
[2]; organic solvent or mixture, thermodynamic from solid, IPAc, 25° C., visual observation, read-out: Approximate solubility
  solubility: < 5 mg/mL
[2]; organic solvent or mixture, thermodynamic from solid, Isopropanol, 25° C., visual observation, read-out: Approximate solubility
  solubility: 6 mg/mL (≈ 18.1 mM)
[2]; organic solvent or mixture, thermodynamic from solid, Methanol, 25° C., visual observation, read-out: Approximate solubility
  solubility: 21 mg/mL (≈ 63.2 mM)
[2]; organic solvent or mixture, thermodynamic from solid, Methyl ethyl ketone, 25° C., visual observation, read-out: Approximate solubility
  solubility: 12 mg/mL (≈ 36.1 mM)
[2]; organic solvent or mixture, thermodynamic from solid, Tetrahydrofuran, 25° C., visual observation, read-out: Approximate solubility
  solubility: 104 mg/mL (≈ 313 mM)
[2]; organic solvent or mixture, thermodynamic from solid, t-Butyl methyl ether, 25° C., visual observation, read-out: Approximate solubility
  solubility: < 5 mg/mL
[2]; polyethylene glycol 400, methanol, ethanol, acetone and methyl ethyl ketone
  solubility: sparingly soluble
[2]; polyethylene glycol 400, organic solvent or mixture, read-out: solubility in polyethylene glycol 400
  solubility: ~20 mg/mL (≈ 60.2 mM)
[2]; tetrahydrofurane and 1,4-dioxane
  solubility: freely soluble
[2]; thermodynamic from solid, Water, 25° C., HPLC, read-out: Approximate solubility
  solubility at 5 h: 0.005 mg/mL (≈ 0.015 mM)
[2]; water, ethyl acetate, acetonitrile, IPAc, t-Butyl methyl ether, heptane, dichloromethane or anisole
  solubility: insoluble
[2]; water, as stated in the dog study, read-out: water solubility limit
  solubility at 5 h: 0.05 mg/mL (≈ 0.15 mM)
[3]; Group 3 Bleo/BETi1 0.06 mg/mL
  Mean Histology Score (Hubner-modified Ashcroft): 3.00
[3]; Group 4 Bleo/BETi1 0.6 mg/mL
  Mean Histology Score (Hubner-modified Ashcroft): 4.64
[3]; Group 5 Bleo/BETi1 3 mg/mL
  Mean Histology Score (Hubner-modified Ashcroft): 5.52
[3]; 0.06 mg/mL
  mean score, Hübner-modified Ashcroft scale of 0-8: 3.00
[3]; 0.6 mg/mL
  mean score, Hübner-modified Ashcroft scale of 0-8: 4.64
[3]; 3 mg/mL
  mean score, Hübner-modified Ashcroft scale of 0-8: 5.52

Reference: patent US20250339409A1, “USES OF PAN BET INHIBITORS” (VYNE THERAPEUTICS INC., priority 2021, published 2025)
